Assay results published in patent US20110207751A1, “HETEROCYCLIC COMPOUNDS AND USES AS ANTICANCER AGENTS” (priority 2010, published 2011).
Where a name gives a salt, the structure may show the parent alone.

Columns and labels:
Format in all cases: cell-based
[1] = tested on: H292 cells (human pulmonary lung carcinoma cell line); assay: Inhibition of cell proliferation, xCelligence cell index; conditions: NCI-H292, 72 hr post compound treatment, read-out: calculated IC50
Description: (§1) The biological activity of compounds disclosed herein was monitored and profiled using the Real-Time Cell Electronic Sensing (RT-CES®) system from ACEA Biosciences, Inc. The RT-CES system utilizes cell-substrate impedance technology to monitor cellular behavior inside tissue culture wells in a microtiter plate format. The technology features in the integration of molecular and cell biology with microelectronics and is based on the electronic detection of biological assay process. The details of this cell electronic sensing technology and associated devices, systems and methods of use are described in U.S. Pat. No. 7,167,585; U.S. Pat. No. 7,468,255; PCT publication number WO 2004/010102; U.S. Pat. No. 7,470,533; and U.S. Pat. No. 7,459,303, each of which is incorporated herein by reference. Additional details of RT-CES technology are further disclosed in U.S. Pat. No. 7,468,255.
(§2) For measurement of cell-substrate or cell-electrode impedance using RT-CES technology, microelectrodes having appropriate geometries are fabricated onto the bottom surfaces of microtiter plate or similar device, facing into the wells. […] When there are changes to the biological status of the cells analogue electronic readout signals are measured automatically and in real time, and are converted to digital signals for processing and for analysis. In a RT-CES system, a cell index (arbitrary representation of change in impedance) is automatically derived and provided based on measured electrode impedance values. […]
(§3) To quantify cell status based on the measured cell-electrode impedance, a parameter termed Cell Index is derived. Cell Index is a quantitative measure of the status of the cells in an electrode-containing well. […]
(§4) H292 cells (human pulmonary lung carcinoma cell line) were seeded into wells of 96 well E-plate devices (Roche) with an initial seeding density of 5000 cells per well and were pre-incubated in incubator under standard cell culture condition for about 24 hours. […] The cell status was monitored prior to and after the compound addition using xCelligence system (Roche). […]

[2] = tested on: GTL16 cells (human gastric cancer cell line); assay: as above; conditions: GTL 16, 72 hr post compound treatment, read-out: calculated IC50
Description: as §1
For measurement of cell-substrate or cell-electrode impedance using RT-CES technology, microelectrodes having appropriate geometries are fabricated onto the bottom surfaces of microtiter plate or similar device, facing into the wells. Cells are introduced into the wells of the devices, and make contact to and attach to the electrode surfaces. The presence, absence or change of properties of cells affects the electronic and ionic passage on the electrode sensor surfaces. Measuring the impedance between or among electrodes provides important information about biological status of cells present on the sensors. When there are changes to the biological status of the cells analogue electronic readout signals are measured automatically and in real time, and are converted to digital signals for processing and for analysis. In a RT-CES system, a cell index (arbitrary representation of change in impedance) is automatically derived and provided based on measured electrode impedance values. […]
as §3

[3] = tested on: U118MG cells (human brain cancer cell line); assay: as above; conditions: U-118-MG, 72 hr post compound treatment, read-out: calculated IC50
[4] = tested on: SW620 cells (human colon cancer cell line); assay: as above; conditions: SW-620, 72 hr post compound treatment, read-out: calculated IC50
Description: (§5) The biological activity of compounds disclosed herein was monitored and profiled using the Real-Time Cell Electronic Sensing (RT-CES®) system from ACEA Biosciences, Inc. The RT-CES system utilizes cell-substrate impedance technology to monitor cellular behavior inside tissue culture wells in a microtiter plate format. The technology features in the integration of molecular and cell biology with microelectronics and is based on the electronic detection of biological assay process. […]
as §2, §3

[5] = tested on: A549 human lung cancer cells; assay: Cell Death Detection ELISA, apoptosis; conditions: 37 nM, 24 hr, 48 hr, 72 hr
Description: To test if COMPOUND O compound induces apoptosis in cancer cells, the A549 human lung cancer cells were treated with 37 nM COMPOUND O and 37 nM paclitaxel. Cell apoptosis and death detection was measured by Cell Death Detection ELISA kit (Roche Applied Sciences), according to the assay protocol from the kit. Briefly, 5000 cells were seeded into each well of the 96-well plate. […] Cells were harvested and lysed 24 hr, 48 hr or 72 hr post drug treatment. Twenty microliters of lysate were removed and transferred to streptavidin-coated microplate and then incubated with anti-histone-biotin and anti-DNA-POD antibodies for 2 hr followed by adding 2,2′-azinobis-3-ethylbenzthiazoline-sulphonic-acid substrate for color development. The plate was measured at an absorbance of 405 and 490 nm in a Beckman Multimode DTX880 plate reader.

[6] = tested on: HT29 cells (human colon cancer cell line); assay: Inhibition of cell proliferation, xCelligence cell index; conditions: HT-29, 72 hr post compound treatment, read-out: calculated IC50
Description: as §1, §2, §3
as §4, with “HT29” for “H292”, “colon cancer” for “pulmonary lung carcinoma”

[7] = tested on: H2347 cells (human non-small cell lung cancer cell line); assay: as above; conditions: NCI-H2347, 72 hr post compound treatment, read-out: calculated IC50
Description: as §5, §2, §3

IC50 [1]	IC50 [2]	IC50 [3]	IC50 [4]	IC50 [6]	IC50 [7]	Structure (SMILES)	apoptotic signal [5]
10.8 nM	67 nM	13.1 nM	2.65 nM	25.4 nM	1.76 nM	CCc1ccc(Nc2nc(-c3c(C)nc4sccn34)cs2)cc1 [COMPOUND O, 2-(4-ethylphenyl)amino-4-(6-methylimidazo[2,1-b]thiazol-5-yl)-thiazole monohydrobromide]	strong apoptotic signals (starting from 48 hr post drug treatment)
2.59 nM	1.02 nM	12.3 nM	0.998 nM	2.52 nM		CC(=O)O[C@H]1C(=O)[C@@]2(C)[C@H]([C@H](OC(=O)c3ccccc3)[C@]3(O)C[C@H](OC(=O)[C@H](O)[C@@H](NC(=O)c4ccccc4)c4ccccc4)C(C)=C1C3(C)C)[C@]1(OC(C)=O)CO[C@@H]1C[C@@H]2O [paclitaxel]	strong apoptotic signals (starting from 48 hr post drug treatment)
2.63 nM	3.75 nM	4.31 nM		12.7 nM	5.05 nM	CC[C@]1(O)C[C@H]2CN(CCc3c([nH]c4ccccc34)[C@@](C(=O)OC)(c3cc4c(cc3OC)N(C=O)[C@H]3[C@@](O)(C(=O)OC)[C@H](OC(C)=O)[C@]5(CC)C=CCN6CC[C@]43[C@@H]65)C2)C1 [vincristine]	
